Read-outs that look alike come from different tables or passages of the source.
Legend:
[1] = Pharmacokinetics and absolute bioavailability in Sprague Dawley rats, IV and SC 4 mg/kg (LC/MS MS); format: in vivo, rat; settings: for AUC: read-out: AUC(0-∝)
Method: The absolute bioavailability and pharmacodynamic study was conducted in Sprague Dawley rats following intravenous and subcutaneous dose administration of HIP2 (FIG. 24), Optimized HIP2B and INGAP. The purpose was to determine the absorption, absolute bioavailability and plasma levels of HIP2, Optimized HIP2B and INGAP in male rats following two different routes of administration.
Six Groups of five male Sprague Dawley rats were administered HIP2, HIP2B or INGAP by intravenous and subcutaneous routes as follows in table below.
Ten serial blood plasma samples (0.03 ml each) were collected from a jugular vein catheter from five animals per group at 5, 10, 15, 30 minutes, 45 minutes followed by samples at 1, 2, 3, 8, and 24 hours post-dose. Plasma was collected into tubes containing EDTA. Following collection, samples were kept chilled on cool packs before centrifugation and transfer to pre-labeled microfuge tubes for storage at −70° C. or below.
Rat plasma samples of 200 μl each were added to a micro centrifuge tube containing 1 ml of acetonitrile (0.07% trifluoroacetic acid, TFA) and stirred with a vortex mixer for 1 min. followed by centrifugation to remove precipitated plasma proteins. The supernatant solution was removed and evaporated, using a Speed Vac, to dryness. To the micro centrifuge tube containing the dry pellet was added 200 μl of 20:80 acetonitrile:water (containing 0.07% TFA). The sample was centrifuged to remove any insoluble material and the supernatant solution transferred to analytical vials for LC/MS MS analysis. The mass spectrometer was calibrated to detect the most abundant daughter ion/ions observed for each of the respective reference samples of HIP2B (M=286.0), HIP2 (M=287.1) and INGAP (M=212.2, 356.1, 373.9). Optimized HIP2B, HIP2 and INGAP plasma samples were analyzed on a C-18 reverse phase column (50 mm×2.0 mm, Varian Pursuit XRS3) using 0.07% TFA in H2O as buffer A and 0.07% TFA in acetonitrile as buffer B. A linear gradient of 98% A/2% B progressing to 100% B over 9 minutes was used at a flow rate of 0.4 ml/min.
The following plasma controls were treated as described above and used to establish a standard concentration curve: • 1. Blank plasma as a background control • 2. Five standard plasma samples containing 6.7×10^4, 6.7×10^3, 6.7×10^2, […] ng/ml of HIP2B, HIP2 and INGAP

[2] = In vitro stability of peptides to proteases in human plasma at 37 C (HPLC/LC-MS); format: in vitro ADME
Method: The peptides were incubated in human plasma, at 37° C. Sample incubations were performed over a period of 1 hr. Individual time points of 1, 5, 10, 30, and 60 minutes were used to follow the reactions. Deactivation of plasma proteases at each time point was achieved by heating the samples at 100° C. for 1 min. Following work-up the plasma treated samples were evaluated by reverse phase chromatography in series with at mass spectrometer, HPLC/LC-MS, against control samples.
Plasma Treated with HIP and Optimized HIP peptides were evaluated over 1, 5, 10, 30 and 60 minutes. For each time point 0.70 ml of plasma was pipetted into a 10 ml test tube. To each was added 0.30 ml of a stock solution of HIP or Optimized HIP peptide (1.66 mg/ml) prepared in phosphate buffered saline. The plasma/peptide samples were incubated at 37° C. for each time point followed by heating at 100° C. to inactivate the proteolytic activity of plasma proteases. Following inactivation, the samples were diluted with 1 ml of H2O, centrifuged and the supernatant liquid removed for analysis.
Samples were analyzed on a C-18 reverse phase column (50 mm×2.0 mm) using 0.07% TFA in H2O as buffer A and 0.07% TFA in acetonitrile as buffer B. A linear gradient of 98% A/2% B progressing to 30% A/70% B over 10 min. was used at a flow rate of 0.4 ml/min. Eluant was monitored by UV at a wavelength of 220 nm and by mass spectroscopy. Comparisons of chromatographic profiles of plasma treated peptides (37° C.) against peptide reference samples and plasma controls were used to determine the relative stability of peptide to plasma treatment.
T=0: Plasma (0.7 ml) plus peptide stock solution (0.3 ml), heat 100° C. 1 min. add 1 ml H2O, centrifuge.
Plasma background control: 0.7 ml plasma plus PBS (0.3 ml), heat 100° C. 1 min, add 1 ml H2O, centrifuge.
Peptide reference heat treated: Peptide stock solution (0.3 ml) plus 0.7 ml PBS, heat 100° C. 1 min., add 1 ml H2O.
Peptide reference no heat: Peptide stock solution (0.3 ml) add 0.7 ml PBS plus 1 ml H2O.

[3] = HIP2B stability study in distilled water by LC/MS; format: physicochemical; settings: 4-8° C. and 25° C., 1, 2 and 3 weeks
Method: Experimental Procedure. The study was initiated with two groups of eight samples each. One group is maintained at 4-8° C. and the other at 25° C., as part of a 2 month stability study. Each sample contains 4.57 milligrams of HIP2B in 5 micro liters of distilled water. One sample from each temperature group is removed and placed in a minus 20° C. freezer, for storage, every seven days until an LC/MS analysis can be performed. A series of samples were evaluated after 1, 2, and 3 weeks in the stability study against a control sample of HIP2B which had been prepared at the initiation of the study and stored at −20° C. After three weeks of stability testing at each of the temperatures described above, all of the samples were unchanged as determined by LC/MS and therefore deemed stable at 1, 2, and three weeks.

Ac-IGLHDPTQGTEPNG-NH2 [HIP2B, Ac-Ile-Gly-Leu-His-Asp-Pro-Thr-Gln-Gly-Thr-Glu-Pro-Asn-Gly-NH2]
AUC(0-∝) ([1]; IV, rat): 1614.3 ng·h/mL
C1 h ([1]; IV, rat): 114 ng/mL
F ([1]; SQ versus IV, rat): 0.87
appearance of animals post-dosing ([1]; all times post-dosing, each route): appeared normal
Cmax ([1]; in vivo, IV, rat): 8240 ng/mL
Tmax ([1]; in vivo, IV, rat): 4.98 min
C0 ([1]; in vivo, IV, rat, estimated): 18800 ng/mL
clearance ([1]; in vivo, IV, rat, read-out: apparent mean plasma clearance (converted)): 31.7 mL/min/kg
Vd ([1]; in vivo, IV, rat, read-out: apparent mean volume of distribution): 0.48 L/kg
Tmax ([1]; in vivo, SQ, rat): 10 min
Cmax ([1]; in vivo, SQ, rat, n = 5): 2740 ng/mL
bioavailability ([1]; in vivo, sc, rat, read-out: absolute subcutaneous bioavailability): 87%
CL/F ([1]; in vivo, sc, subcutaneous, rat, read-out: apparent mean Cl/F (converted)): 35 mL/min/kg
plasma levels ([1]; intravenous or subcutaneous, rat): significantly higher relative to HIP2 or INGAP
time by which concentrations were undetectable ([1]; intravenous, rat): ≤ 45 min
level at 1 h ([1]; male, Sprague Dawley, plasma, sc, SQ, rat, read-out: C1 h): 612 ng/mL
Vd/F ([1]; male, Sprague Dawley, plasma, sc, subcutaneous, rat, read-out: apparent mean V2/F): 1 L/kg
AUC ([1]; rat, in vivo, SQ, rat): 1930 ng·h/mL
half-life ([1]; rat, in vivo, SQ, rat, read-out: T1/2 (converted)): 20.4 min
AUC ([1]; rat, in vivo, iv, rat): 2230 ng·h/mL
half-life ([1]; rat, in vivo, iv, rat, read-out: T1/2 (converted)): 11.4 min
half-life ([1]; rat, in vivo, iv, rat, read-out: terminal phase plasma half-life): 11 min
half-life ([1]; rat, in vivo, sc, subcutaneous, rat, read-out: terminal phase plasma half-life): 20 min
stability to plasma proteases ([2]; human plasma 37° C., 1 hr): completely stable
stability in vitro in serum ([2]; serum at 37 degrees, relative to HIP 2): significantly more a more stable
stability by LC/MS [3]: unchanged
